From patent publication US20150065544A1, “THERAPEUTIC AGENT AND PREVENTIVE AGENT FOR DEMYELINATING DISEASE” (OSAKA UNIVERSITY, priority 2011, published 2015) come the findings set out here.

Assay [1] concerns mouse experimental autoimmune encephalomyelitis (EAE) models. Briefly: Clinical symptom scores in mouse experimental autoimmune encephalomyelitis (EAE) model. The class given is in vivo, mouse (SJL/J). Particulars: Day 10 to Day 44 after immunization, versus tap water group 1, FIG. 1. Here is the method: In mouse experimental autoimmune encephalomyelitis (EAE) models, which are MS animal models, the effects of 2-(3-cyano-4-isobutyloxyphenyl)-4-methyl-5-thiazolecarboxylic acid (Compound A) were investigated. Proteolipid protein (PLP) and complete Freund's adjuvant were administered subcutaneously to 8-week-old female SJL/J mice for immunization to induce EAE. The animals were divided into 3 groups; tap water, 1.5 mg/kg/day of Compound A and 0.75 mg/kg/day of Compound A were administered to the first, second and third group, respectively, by administration in drinking water from Day 10 to Day 44 after the immunization day. Neurological symptoms in the extremities were monitored daily from the day of immunization to Day 44 post-immunization, and the observations were scored as clinical symptoms (Vsevolod Smolianov, et al., Alteration of T cell cytokine production in PLPp-139-151-induced EAE in SJL mice by animmunostimulatory CpG Oligonucleotide. Journal of Neuroinflammation 2011, 8:59).

Assay [2] has the same test system. The assay is described as follows: Histopathological examination of spinal cord tissues of EAE mice. Particulars: Day 16 post-immunization. The class given is in vivo, mouse (SJL/J).

`Cc1nc(-c2ccc(OCC(C)C)c(C#N)c2)sc1C(=O)O` [Compound A, 2-(3-cyano-4-isobutyloxyphenyl)-4-methyl-5-thiazolecarboxylic acid]: the “Clinical symptoms of EAE (neurological symptom scores)” value in assay [1] (group 2: 1.5 mg/kg/day in drinking water) and in assay [1] (group 3: 0.75 mg/kg/day in drinking water) was “suppressed” each time. In addition, the “Inflammation in the spinal cord tissues (iNOS-positive cells, activated macrophages, activation of astrocytes)” value in assay [2] (conclusion from FIG. 2) was “suppressed inflammation in the tissues”. For the same molecule, in assay [2] (group 3: 0.75 mg/kg/day, versus tap water group 1, FIG. 2), the “Staining of inducible nitric oxide synthase (iNOS), macrophages and astrocytes in spinal cord tissues” value is “weak”.
